In US20230135093A1, “TRIAZOLYL DERIVATIVES AS GABA A ALPHA5 PAM” (Hoffmann-La Roche Inc., priority 2020, published 2023):

Assays:
h-GABA-A α5β3γ2 [1] = molecular target: T1, h-GABA-A α5β3γ2 (Homo sapiens, UniProt P18507+P31644); experiment: Two-electrode voltage clamp electrophysiology in Xenopus oocytes expressing GABAA receptors (modulation of GABA EC20 current); type: cell-based; details: Table 1; for Efficacy (GABA) %: % modulation of GABA EC20 = 100*(Fold increase-1); for Fold increase h-GABA-A α5β3γ2 oocyte: Xenopus oocytes, GABA EC20, test compound at approximatively 30 fold its Ki
T1 construct: expressed in transfected cells; host or cells: Xenopus laevis oocytes, micro-injected with subunit RNA
Experimental: Xenopus laevis oocytes at maturation stages V-VI were used for the expression of cloned mRNA encoding GABAA receptor subunits. Oocytes ready for RNA micro-injection were bought from Ecocyte, Castrop-Rauxel, Germany and stored in modified Barth's medium (composition in mM: NaCl 88, KCl 1, NaHCO3 2.4, HEPES 10, MgSO4 0.82, CaNO3 0.33, CaCl2 0.33, pH=7.5) at 20° C. until the experiment.
Oocytes were plated in 96-well plates to be used in an automated instrument (Robo-ocyte, MultiChannelSystems, Reutlingen, Germany) for microinjection and electrophysiological recordings. Approximately 50 nl of an aqueous solution containing the RNA transcripts for the subunits of the desired GABAA receptor was injected into each oocyte. RNA concentrations ranged between 0.3 and 16 ng/μl/subunit and were adjusted in pilot experiments to obtain GABA responses of a suitable size and a maximal effect of the reference modulator, Beta-CCM (3-CCM), a betacarboline negative allosteric modulator (NAM) at the GABAA receptor benzodiazepine (BZD) binding site or Midazolam, a benzodiazepine positive allosteric modulator (PAM) at the GABAA receptor benzodiazepine (BZD) binding site. The concentration of the γ2 subunit encoding RNA usually was 5- to 10-fold higher than the RNAs encoding the other subunits. Oocytes were kept in modified Barth's medium (composition in mM: NaCl 88, KCl 1, NaHCO3 4, HEPES 10, MgSO4 0.82, CaNO3 0.33, CaCl2 0.33, pH=7.5) at 20° C. until the experiment.
Electrophysiological experiments were performed on days 3 to 5 after the micro-injection of mRNA. During the experiment the oocytes were constantly superfused by a solution containing (in mM) NaCl 90, KCl 1, HEPES 5, MgCl2 1, CaCl2 1 (pH 7.4). Oocytes were impaled by two glass microelectrodes (resistance: 0.4 MQ) which were filled with a solution containing KCl 1M+K-acetate 1.5 M and voltage-clamped to −80 mV. The recordings were performed at room temperature using the Roboocyte two-electrode voltage clamp system (Multichannelsystem). After an initial equilibration period of 1.5 min GABA was added for 1.5 min at a concentration evoking approximately 20% of a maximal current response (EC20). After another rest interval of 2.5 min GABA was again added evoking a response of similar amplitude and shape. 0.5 min after the onset of this second GABA application the test compound, at a concentration corresponding to approximatively 30 fold its Ki, was added while GABA was still present. Current traces were recorded at a digitization rate of 10 Hz during and shortly before and after the GABA application.
Each compound and concentration was tested on at least 3 oocytes. Different oocytes were used for different compound concentrations. β-CCM, a negative allosteric modulator, or Midazolam, a positive allosteric modulators, were tested on a few (3-6) oocytes on each 96-well plate for a positive control at a maximally effective. β-CCM inhibited the GABA-evoked current by approximatively 50% (Fold increase 0.5), while Midazolam potentiated the GABA-induced current by approximatively 150% (Fold increase 2.5).
For the analysis, the digitized current traces of the first and second GABA response were superimposed and, if necessary, rescaled to equal maximal amplitudes. The ratio between the two responses during the time interval of test compound application was calculated point by point. The extremum of the resulting “ratio trace” was taken as the efficacy (“Fold increase”) of the compound expressed as “% modulation of GABA EC20” (100*(Fold increase-1)).

h-GABA-A α5β3γ2 [2] = molecular target: T1, h-GABA-A α5β3γ2; experiment: [3H]flumazenil competition binding assay on membranes of HEK293 cells expressing GABAA receptors; details: Table 1; displacement of [3H]-Flumazenil (0.5 nM), HEK293 cells expressing human receptors, means of two determinations
Experimental: The affinity of compounds at GABAA receptor subtypes was measured by competition for [3H]flumazenil (85 Ci/mmol; Roche) binding to HEK293 cells expressing rat (stably transfected) or human (transiently transfected) receptors of composition α1β3γ2, α2β3γ2, α3β3γ2 and α5β3γ2.
Cell pellets were suspended in Krebs-tris buffer (4.8 mM KCl, 1.2 mM CaCl2, 1.2 mM MgCl2, 120 mM NaCl, 15 mM Tris; pH 7.5; binding assay buffer), homogenized by polytron for ca. 20 sec on ice and centrifuged for 60 min at 4° C. (50000 g; Sorvall, rotor: SM24=20000 rpm). The cell pellets were resuspended in Krebs-tris buffer and homogenized by polytron for ca. 15 sec on ice. Protein was measured (Bradford method, Bio-Rad) and aliquots of 1 mL were prepared and stored at −80° C.
Radioligand binding assays were carried out in a volume of […] (96-well plates) which contained […] of cell membranes, [^3H]-Flumazenil at a concentration of 1 nM for α1, α2, α3 subunits and 0.5 nM for α5 subunits and the test compound in the range of […]. Nonspecific binding was defined by 10^−5 M diazepam and typically represented less than 5% of the total binding. Assays were incubated to equilibrium for 1 hour at 4° C. and harvested onto GF/C uni-filters (Packard) by filtration using a Packard harvester and washing with ice-cold wash buffer (50 mM Tris; pH 7.5). After drying, filter-retained radioactivity was detected by liquid scintillation counting. Ki values were calculated using Excel-Fit (Microsoft) and are the means of two determinations.
In a preferred embodiment the compounds of the invention are binding selective for the α5 subunit relative to the α1, α2 and α3 subunit. Representative test results, obtained by the above described assay measuring binding affinity to HEK293 cells expressing human (h) receptors, are shown in the Table below.

Compound: Cn1nnc(-c2ccc(Cl)cc2F)c1Cn1ncc(N2CCN(C3CC3)CC2)cc1=O [Example 17, 2-[[5-(4-chloro-2-fluoro-phenyl)-3-methyl-triazol-4-yl]methyl]-5-(4-cyclopropyl-piperazin-1-yl)pyridazin-3-one]
- Efficacy (GABA) % (h-GABA-A α5β3γ2 [1]): 75%
- Fold increase h-GABA-A α5β3γ2 oocyte (h-GABA-A α5β3γ2 [1]): 1.75
- Ki (h-GABA-A α5β3γ2 [2]): 12 nM

Compound: Cc1ccc(-c2nnn(C)c2Cn2ncc(N3CCC[C@H]3C)cc2=O)cn1 [Example 18, 2-[[3-methyl-5-(6-methyl-3-pyridyl)triazol-4-yl]methyl]-5-[(2R)-2-methylpyrrolidin-1-yl]pyridazin-3-one]
- Efficacy (GABA) % (h-GABA-A α5β3γ2 [1]): 79%
- Fold increase h-GABA-A α5β3γ2 oocyte (h-GABA-A α5β3γ2 [1]): 1.79
- Ki (h-GABA-A α5β3γ2 [2]): 0.8 nM

Compound: COC[C@@H]1CCCN1c1cnn(Cc2c(-c3ccc(C)nc3)nnn2C)c(=O)c1 [Example 19, 5-[(2S)-2-(methoxymethyl)pyrrolidin-1-yl]-2-[[3-methyl-5-(6-methyl-3-pyridyl)triazol-4-yl]methyl]pyridazin-3-one]
- Efficacy (GABA) % (h-GABA-A α5β3γ2 [1]): 137%
- Fold increase h-GABA-A α5β3γ2 oocyte (h-GABA-A α5β3γ2 [1]): 2.37
- Ki (h-GABA-A α5β3γ2 [2]): 10.6 nM

Compound: Cc1nnn(-c2ccc(Cl)cc2)c1Cn1ncc(N2C[C@@H](C)O[C@@H](C)C2)cc1=O [Example 20, 2-[[3-(4-chlorophenyl)-5-methyl-triazol-4-yl]methyl]-5-[(2R,6S)-2,6-dimethylmorpholin-4-yl]pyridazin-3-one]
- Efficacy (GABA) % (h-GABA-A α5β3γ2 [1]): 108%
- Fold increase h-GABA-A α5β3γ2 oocyte (h-GABA-A α5β3γ2 [1]): 2.08
- Ki (h-GABA-A α5β3γ2 [2]): 8.4 nM

Compound: Cn1nnc(-c2ccc(Cl)cc2F)c1Cn1ncc(N2CCN(C(=O)C3CC3)CC2)cc1=O [Example 21, 2-[[5-(4-chloro-2-fluoro-phenyl)-3-methyl-triazol-4-yl]methyl]-5-[4-(cyclopropanc-carbonyl)piperazin-1-yl]pyridazin-3-one]
- Efficacy (GABA) % (h-GABA-A α5β3γ2 [1]): 140%
- Fold increase h-GABA-A α5β3γ2 oocyte (h-GABA-A α5β3γ2 [1]): 2.4
- Ki (h-GABA-A α5β3γ2 [2]): 8.7 nM

Compound: CNc1cnn(Cc2c(-c3ccc(Cl)cc3F)nnn2C)c(=O)c1 [Example 22, 2-[[5-(4-chloro-2-fluoro-phenyl)-3-methyl-triazol-4-yl]methyl]-5-(methylamino)pyridazin-3-one]
- Efficacy (GABA) % (h-GABA-A α5β3γ2 [1]): 45%
- Fold increase h-GABA-A α5β3γ2 oocyte (h-GABA-A α5β3γ2 [1]): 1.45
- Ki (h-GABA-A α5β3γ2 [2]): 20.8 nM

Compound: CCOC1CN(c2cnn(Cc3c(C)nnn3-c3ccc(Cl)cc3F)c(=O)c2)C1 [Example 23, 2-((1-(4-chloro-2-fluorophenyl)-4-methyl-1H-1,2,3-triazol-5-yl)methyl)-5-(3-ethoxyazetidin-1-yl)pyridazin-3(2H)-one]
- Efficacy (GABA) % (h-GABA-A α5β3γ2 [1]): 75%
- Fold increase h-GABA-A α5β3γ2 oocyte (h-GABA-A α5β3γ2 [1]): 1.75
- Ki (h-GABA-A α5β3γ2 [2]): 70 nM

Compound: Cc1nnn(-c2ccc(Cl)cc2F)c1Cn1ncc(N2Cc3ccccc3C2)cc1=O [Example 24, 2-[[3-(4-chloro-2-fluoro-phenyl)-5-methyl-triazol-4-yl]methyl]-5-isoindolin-2-yl-pyridazin-3-one]
- Efficacy (GABA) % (h-GABA-A α5β3γ2 [1]): 60%
- Fold increase h-GABA-A α5β3γ2 oocyte (h-GABA-A α5β3γ2 [1]): 1.6
- Ki (h-GABA-A α5β3γ2 [2]): 52.6 nM

Compound: Cc1ccc(-n2nnc(C)c2Cn2ncc(N3CCC[C@H]3C)cc2=O)cn1 [Example 25, 2-[[5-methyl-3-(6-methyl-3-pyridyl)triazol-4-yl]methyl]-5-[(2R)-2-methylpyrrolidin-1-yl]pyridazin-3-one]
- Efficacy (GABA) % (h-GABA-A α5β3γ2 [1]): 97%
- Fold increase h-GABA-A α5β3γ2 oocyte (h-GABA-A α5β3γ2 [1]): 1.97
- Ki (h-GABA-A α5β3γ2 [2]): 4.4 nM

Compound: COC1CN(c2cnn(Cc3c(-c4ccc(Cl)cc4F)nnn3C)c(=O)c2)C1 [Example 26, 2-[[5-(4-chloro-2-fluoro-phenyl)-3-methyl-triazol-4-yl]methyl]-5-(3-methoxyazetidin-1-yl)pyridazin-3-one]
- Efficacy (GABA) % (h-GABA-A α5β3γ2 [1]): 55%
- Fold increase h-GABA-A α5β3γ2 oocyte (h-GABA-A α5β3γ2 [1]): 1.55
- Ki (h-GABA-A α5β3γ2 [2]): 12.8 nM

Compound: CCOC1CN(c2cnn(Cc3c(-c4ccc(Cl)cc4F)nnn3C)c(=O)c2)C1 [Example 27, 2-[[5-(4-chloro-2-fluoro-phenyl)-3-methyl-triazol-4-yl]methyl]-5-(3-ethoxyazetidin-1-yl)pyridazin-3-one]
- Efficacy (GABA) % (h-GABA-A α5β3γ2 [1]): 69%
- Fold increase h-GABA-A α5β3γ2 oocyte (h-GABA-A α5β3γ2 [1]): 1.69
- Ki (h-GABA-A α5β3γ2 [2]): 8.2 nM

Compound: Cn1nnc(-c2ccc(Cl)cc2F)c1Cn1ncc(N2CC(OCC3CC3)C2)cc1=O [Example 28, 2-[[5-(4-chloro-2-fluoro-phenyl)-3-methyl-triazol-4-yl]methyl]-5-[3-(cyclopropyl-methoxy)azetidin-1-yl]pyridazin-3-one]
- Efficacy (GABA) % (h-GABA-A α5β3γ2 [1]): 115%
- Fold increase h-GABA-A α5β3γ2 oocyte (h-GABA-A α5β3γ2 [1]): 2.15
- Ki (h-GABA-A α5β3γ2 [2]): 18.4 nM

Compound: Cn1nnc(-c2ccc(Cl)cc2F)c1Cn1ncc(N2CC3(CCCO3)C2)cc1=O [Example 29, 2-[[5-(4-chloro-2-fluoro-phenyl)-3-methyl-triazol-4-yl]methyl]-5-(5-oxa-2-azaspiro[3.4]octan-2-yl)pyridazin-3-one]
- Efficacy (GABA) % (h-GABA-A α5β3γ2 [1]): 49%
- Fold increase h-GABA-A α5β3γ2 oocyte (h-GABA-A α5β3γ2 [1]): 1.49
- Ki (h-GABA-A α5β3γ2 [2]): 15.2 nM

Compound: C[C@@H]1CN(c2cnn(Cc3c(-c4ccc(Cl)cc4)nnn3C)c(=O)c2)C[C@H](C)O1 [Example 30, 2-[[5-(4-chlorophenyl)-3-methyl-triazol-4-yl]methyl]-5-[(2R,6S)-2,6-dimethylmorpholin-4-yl]pyridazin-3-one]
- Efficacy (GABA) % (h-GABA-A α5β3γ2 [1]): 110%
- Fold increase h-GABA-A α5β3γ2 oocyte (h-GABA-A α5β3γ2 [1]): 2.1
- Ki (h-GABA-A α5β3γ2 [2]): 3.1 nM

Compound: CN(C)c1cnn(Cc2c(-c3ccc(Cl)cc3)nnn2C)c(=O)c1 [Example 31, 2-[[5-(4-chlorophenyl)-3-methyl-triazol-4-yl]methyl]-5-(dimethylamino)pyridazin-3-one]
- Efficacy (GABA) % (h-GABA-A α5β3γ2 [1]): 35%
- Fold increase h-GABA-A α5β3γ2 oocyte (h-GABA-A α5β3γ2 [1]): 1.35
- Ki (h-GABA-A α5β3γ2 [2]): 17.2 nM

Compound: CO[C@@H]1COC2(C1)CN(c1cnn(Cc3c(-c4ccc(Cl)cc4F)nnn3C)c(=O)c1)C2 [Example 32, (S)-2-((4-(4-chloro-2-fluorophenyl)-1-methyl-1H-1,2,3-triazol-5-yl)methyl)-5-(7-methoxy-5-oxa-2-azaspiro[3.4]octan-2-yl)pyridazin-3(2H)-one]
- Efficacy (GABA) % (h-GABA-A α5β3γ2 [1]): 98%
- Fold increase h-GABA-A α5β3γ2 oocyte (h-GABA-A α5β3γ2 [1]): 1.98
- Ki (h-GABA-A α5β3γ2 [2]): 46.4 nM

Compound: CO[C@H]1COC2(C1)CN(c1cnn(Cc3c(-c4ccc(Cl)cc4F)nnn3C)c(=O)c1)C2 [Example 33, (R)-2-((4-(4-chloro-2-fluorophenyl)-1-methyl-1H-1,2,3-triazol-5-yl)methyl)-5-(7-methoxy-5-oxa-2-azaspiro[3.4]octan-2-yl)pyridazin-3(2H)-one]
- Efficacy (GABA) % (h-GABA-A α5β3γ2 [1]): 61%
- Fold increase h-GABA-A α5β3γ2 oocyte (h-GABA-A α5β3γ2 [1]): 1.61
- Ki (h-GABA-A α5β3γ2 [2]): 16.7 nM
